Patent publication US7671054B1, “Reverse-turn mimetics and method relating thereto” (Choongwae Pharma Corporation, priority 2001, dated 2010)
In brackets after ≈: the same amount, converted by molar mass.

What was measured:
Format in all cases: cell-based
[1] = Sulforhodamine B (SRB) assay; details: human, 293 cells (renal), 293, Renal, read-out: GI50 (SRB in vitro cytotoxicity)
Protocol: (§1) Growth inhibitory effect of Compound A on the cells listed below was measured by the sulforhodamine B assay. SW480 cells in 100 μl media were plated in each well of 96-well plate and allowed to attach for 24 hours. Compound A was added to the wells to produce the desired final concentrations, and the plates were incubated at 37° C. for 48 hours. The cells were then fixed by gentle addition of 100 μl of cold (4° C.) 10% trichloroacetic acid to each well, followed by incubation at 4° C. for 1 hour. Plates were washed with deionized water five times and allowed to air dry. The cells were then stained by addition of 100 μl SRB solution (0.4% SRB(w/v) in 1% acetic acid (v/v)) to wells for 15 min. After staining, the plates were quickly washed five times with 1% acetic acid to remove any unbound dye, and allowed to air dry. Bound dye was solubilized with 10 mmol/L Tris base (pH 10.5) prior to reading the plates. The optical density (OD) was read on a plate reader at a wavelength of 515 nm with Molecular Device. Inhibition of growth was expressed as relative viability (% of control) and GI50 was calculated from concentration-response curves after log/probit transformation.

786-0 = assay: Sulforhodamine B (SRB) assay; details: Homo sapiens; 786-0, listed under Colon; 48 hours; read-out: GI50 (SRB in vitro cytotoxicity)
Protocol: as §1

A431 = assay: Sulforhodamine B (SRB) assay; details: Homo sapiens, A-431; A431, Melanoma; 48 hours; read-out: GI50 (SRB in vitro cytotoxicity)
Protocol: as §1

CACO-2 = assay: Sulforhodamine B (SRB) assay; details: Homo sapiens; CACO-2, Colon; 48 hours; read-out: GI50 (SRB in vitro cytotoxicity)
Protocol: as §1

CAKI-1 = assay: Sulforhodamine B (SRB) assay; details: Homo sapiens; CAKI-1, Renal; 48 hours; read-out: GI50 (SRB in vitro cytotoxicity)
Protocol: as §1

COLO205 = assay: Sulforhodamine B (SRB) assay; details: Homo sapiens, COLO 205; COLO205, Colon; 48 hours; read-out: GI50 (SRB in vitro cytotoxicity)
Protocol: as §1

DLD-1 = assay: Sulforhodamine B (SRB) assay; details: Homo sapiens; DLD-1, Colon; 48 hours; read-out: GI50 (SRB in vitro cytotoxicity)
Protocol: as §1

G361 = assay: Sulforhodamine B (SRB) assay; details: Homo sapiens, G-361; G361, Melanoma; 48 hours; read-out: GI50 (SRB in vitro cytotoxicity)
Protocol: as §1

HCC2998 = assay: Sulforhodamine B (SRB) assay; details: Homo sapiens, HCC 2998; HCC2998, Colon; 48 hours; read-out: GI50 (SRB in vitro cytotoxicity)
Protocol: as §1

HL60 = assay: Sulforhodamine B (SRB) assay; details: Homo sapiens, HL-60; HL60, Leukemia; 48 hours; read-out: GI50 (SRB in vitro cytotoxicity)
Protocol: as §1

HMV-I = assay: Sulforhodamine B (SRB) assay; details: Melanoma, 48 hours, read-out: GI50 (SRB in vitro cytotoxicity)
Protocol: as §1

HT1080 = assay: Sulforhodamine B (SRB) assay; details: Homo sapiens, HT-1080; HT1080, listed under Prostate; 48 hours; read-out: GI50 (SRB in vitro cytotoxicity)
Protocol: as §1

HT29 = assay: Sulforhodamine B (SRB) assay; details: Homo sapiens, HT-29; HT29, Colon; 48 hours; read-out: GI50 (SRB in vitro cytotoxicity)
Protocol: as §1

K562/ADR = assay: Sulforhodamine B (SRB) assay; details: Homo sapiens, Leukemia, 48 hours, read-out: GI50 (SRB in vitro cytotoxicity)
Protocol: as §1

K562 = assay: Sulforhodamine B (SRB) assay; details: Homo sapiens; K562, Leukemia; 48 hours; read-out: GI50 (SRB in vitro cytotoxicity)
Protocol: as §1

LOVO = assay: Sulforhodamine B (SRB) assay; details: Homo sapiens, Colon, 48 hours, read-out: GI50 (SRB in vitro cytotoxicity)
Protocol: as §1

M14 = assay: Sulforhodamine B (SRB) assay; details: Homo sapiens; M14, Melanoma; 48 hours; read-out: GI50 (SRB in vitro cytotoxicity)
Protocol: as §1

MCF7 = assay: Sulforhodamine B (SRB) assay; details: Homo sapiens; MCF7, Breast; 48 hours; read-out: GI50 (SRB in vitro cytotoxicity)
Protocol: as §1

NCI H23 = assay: Sulforhodamine B (SRB) assay; details: Homo sapiens; NCI H23, Lung; 48 hours; read-out: GI50 (SRB in vitro cytotoxicity)
Protocol: as §1

NCI H460 = assay: Sulforhodamine B (SRB) assay; details: Homo sapiens; NCI H460, Lung; 48 hours; read-out: GI50 (SRB in vitro cytotoxicity)
Protocol: as §1

PC3 = assay: Sulforhodamine B (SRB) assay; details: Homo sapiens, PC-3; PC3, Prostate; 48 hours; read-out: GI50 (SRB in vitro cytotoxicity)
Protocol: as §1

RPMI8226 = assay: Sulforhodamine B (SRB) assay; details: Homo sapiens, RPMI-8226; RPMI8226, Leukemia; 48 hours; read-out: GI50 (SRB in vitro cytotoxicity)
Protocol: as §1

SK-MEL-28 = assay: Sulforhodamine B (SRB) assay; details: Homo sapiens; SK-MEL-28, Melanoma; 48 hours; read-out: GI50 (SRB in vitro cytotoxicity)
Protocol: as §1

SK-MEL-5 = assay: Sulforhodamine B (SRB) assay; details: Homo sapiens; SK-MEL-5, Melanoma; 48 hours; read-out: GI50 (SRB in vitro cytotoxicity)
Protocol: as §1

SW480-CWP = assay: Sulforhodamine B (SRB) assay; details: Colon, 48 hours, read-out: GI50 (SRB in vitro cytotoxicity)
Protocol: as §1

SW480-Kribb = assay: Sulforhodamine B (SRB) assay; details: Colon, 48 hours, read-out: GI50 (SRB in vitro cytotoxicity)
Protocol: as §1

UACC62 = assay: Sulforhodamine B (SRB) assay; details: Homo sapiens, UACC-62; UACC62, Melanoma; 48 hours; read-out: GI50 (SRB in vitro cytotoxicity)
Protocol: as §1

Which results are given for O=c1[nH]cc(F)c(=O)[nH]1 [Compound 5-FU, 5-fluorouracil]?
GI50 at 48 h [1]: 2.02 µg/mL (≈ 15.5 µM); GI50 (786-0): 0.584 µg/mL (≈ 4.49 µM); GI50 (A431): 0.404 µg/mL (≈ 3.11 µM); GI50 (CACO-2): 0.451 µg/mL (≈ 3.47 µM); GI50 (CAKI-1): 0.925 µg/mL (≈ 7.11 µM); GI50 (COLO205): 1.13 µg/mL (≈ 8.69 µM); GI50 (DLD-1): > 10 µg/mL; GI50 (G361): 1.54 µg/mL (≈ 11.8 µM); GI50 (HCC2998): 5.49 µg/mL (≈ 42.2 µM); GI50 (HL60): 7.01 µg/mL (≈ 53.9 µM); GI50 (HMV-I): 2.11 µg/mL (≈ 16.2 µM); GI50 (HT1080): 0.798 µg/mL (≈ 6.13 µM); GI50 (HT29): 5.33 µg/mL (≈ 41 µM); GI50 (K562/ADR): > 10 µg/mL; GI50 (K562): 6.13 µg/mL (≈ 47.1 µM); GI50 (LOVO): 1.03 µg/mL (≈ 7.91 µM); GI50 (M14): 1.23 µg/mL (≈ 9.42 µM); GI50 (MCF7): 1.75 µg/mL (≈ 13.5 µM); GI50 (NCI H23): 2.25 µg/mL (≈ 17.3 µM); GI50 (NCI H460): 1.4 µg/mL (≈ 10.7 µM); GI50 (PC3): > 10 µg/mL; GI50 (RPMI8226): > 10 µg/mL; GI50 (SK-MEL-28): > 10 µg/mL; GI50 (SK-MEL-5): 2.43 µg/mL (≈ 18.7 µM); GI50 (SW480-CWP): > 10 µg/mL; GI50 (SW480-Kribb): > 10 µg/mL; GI50 (UACC62): 1.09 µg/mL (≈ 8.4 µM)
